In data set [1] the test system is human dermal fibroblasts, human liver carcinoma cells (HepG2), and neuronal human astrocytes. The following applies: same experiments (Sayes, 2004); cited from earlier work.
The subject of the next data set is Salmonella typhimurium. The data set is described as follows: Salmonella typhimurium reverse mutation assay (AMES test). Format: cell-based. The text has this: Toxicity test for harmonized, Modified Fullerenes has shown this substance is not cytotoxic when the material is subjected to a Salmonella typhimurium reverse mutation assay (AMES test). The Ames test is used to determine any potential mutagenic activity of the test HMF material. The HMF material was exposed to a large number of test organism in an agar plate. The agar plates were monitored for growth of revertants (organisms mutating to the wild type). The number of wild type organisms are counted to estimate the mutagenic potential of the HMF material.

These results are taken from patent US20080219917A1, “HARMONIZED WATER AND AQUEOUS SOLUTIONS” (DVB GLOBAL, priority 2007, published 2008).

C60(OH)24 [Modified Fullerenes]: in data set [1], the cytotoxicity result is recorded as “no cytotoxicity”.

On to [C60(OH)10-36]^Φ/φ [HMF], for which, in the data set on Salmonella typhimurium (Toxicity test, AMES test), the cytotoxicity result is on record as “not cytotoxic”. Further, the “mutagenic potential (growth of revertants)” value in the data set on Salmonella typhimurium (agar plate) is “not mutagenic”.
